Broadly, the LOAEL is the lowest dose or exposure tested at which an adverse effect was seen. As a reminder, the NOAEL is the highest dose or exposure tested at which no adverse effect was seen.

The values that follow come from EPA's ToxRefDB 2.

Data set [1] has as its system mouse. Conditions: Prenatal developmental toxicity study; cd1; Oral; Gavage/Intubation; dose end: 14 GD; group: maternal; systemic / in life observation / body weight / body weight gain + systemic / in life observation / mortality / mortality.
The subject of data set [2] is mouse. Particulars: Multigenerational reproductive toxicity study, cd1, Oral, Feed, dose end: 2 generation.
The subject of data set [3] is mouse. Conditions: Prenatal developmental toxicity study, cd1, Oral, Gavage/Intubation, dose end: 15 GD.
Data set [4] relates to dog. Conditions: Chronic toxicity; beagle; Oral; [Not Specified]; dose end: 12 month; group: systemic; systemic / in life observation / body weight / body weight + systemic / in life observation / body weight / body weight gain + systemic / ….
The test system of data set [5] is rat. Conditions: Chronic toxicity, wistar, Oral, Feed, dose end: 108 week, group: systemic.
Data set [6] concerns dog. Particulars: Subchronic oral toxicity in nonrodent, beagle, Feed, dose end: 90 day, group: systemic, systemic / pathology microscopic / kidney / vacuolization.
Data set [7] relates to rat. Particulars: Carcinogenicity; wistar; Oral; [Not Specified]; dose end: 24 month; group: systemic; systemic / in life observation / mortality / mortality.
Data set [8] relates to mouse. Conditions: Carcinogenicity, b6c3f1, Oral, Feed, dose end: 24 month, group: systemic.
The subject of data set [9] is dog. Particulars: Chronic toxicity; beagle; Oral; Feed; dose end: 52 week; group: systemic; systemic / clinical chemistry / aminopyrine-n-demethylase / aminopyrine-n-demethylase + systemic / in life observation / body weight / body ….
For data set [10], the system named is rat. Conditions: Subchronic oral toxicity in rodents, wistar, Feed, dose end: 14 week, group: systemic.
The subject of data set [11] is rat. Conditions: Multigenerational reproductive toxicity study, wistar, Oral, Feed, dose end: 2 generation.
The test system of data set [12] is mouse. Particulars: Carcinogenicity; b6c3f1; Oral; Feed; dose end: 104 week; group: systemic; systemic / in life observation / body weight / body weight + systemic / in life observation / body weight / body weight gain + systemic / in….
The test system of data set [13] is rabbit. Particulars: Prenatal developmental toxicity study, himalayan, Oral, Gavage/Intubation, dose end: 28 GD.
The subject of data set [14] is rabbit. Conditions: Prenatal developmental toxicity study, new zealand white, Oral, Gavage/Intubation, dose end: 20 GD.
Data set [15] relates to rat. Particulars: Multigenerational reproductive toxicity study, sprague dawley, Oral, Feed, dose end: 2 generation, systemic / hematology / erythrocyte (rbc) count differential / erythrocyte (rbc) + systemic / hematology / hematocrit (hct) / hematocrit (….
The test system of data set [16] is rat. Conditions: Subchronic oral toxicity in rodents, sprague dawley, Gavage/Intubation, dose end: 19 GD.
Setting [17] is: group: offspring, systemic / in life observation / body weight / offspring (pup) weight + developmental / offspring survival late / lactation index / ….
The mark [18] stands for this setting: group: parental, systemic / in life observation / body weight / body weight + systemic / in life observation / body weight / body weight gain + systemic / in….
Where [19] appears, read: group: reproductive, reproductive / reproductive performance / fertility / fertility.
Setting [20] is: group: reproductive, reproductive / reproductive performance / fertility / fertility + reproductive / offspring survival early / litter size / litter size.
The mark [21] stands for this setting: group: developmental, developmental / developmental malformation / bone / exencephaly + developmental / developmental malformation / trunk / omphalocele + ….
Setting [22] is: group: maternal, reproductive / reproductive performance / resorptions / resorptions + systemic / in life observation / body weight / dam weight.
The mark [23] stands for this setting: group: maternal, reproductive / reproductive performance / resorptions / resorptions + systemic / in life observation / body weight / dam weight + ….
Setting [24] is: systemic / in life observation / body weight / body weight + systemic / clinical chemistry / calcium / calcium + systemic / clinical ….
The mark [25] stands for this setting: systemic / in life observation / body weight / body weight + systemic / in life observation / body weight / body weight gain + systemic / ….
The mark [26] stands for this setting: systemic / organ weight / spleen / absolute + systemic / organ weight / spleen / relative to body weight + systemic / clinical chemistry / ….
The mark [27] stands for this setting: group: offspring, systemic / in life observation / body weight / offspring (pup) weight + systemic / pathology gross / liver / irregular surface + systemic / ….
[28] abbreviates: group: developmental, developmental / developmental malformation / bone / incomplete ossification + systemic / in life observation / body weight / fetal weight.
The mark [29] stands for this setting: group: developmental, developmental / developmental malformation / bone / incomplete ossification + systemic / in life observation / body weight / fetal weight + ….
The mark [30] stands for this setting: group: maternal, systemic / in life observation / clinical signs / alopecia + systemic / in life observation / clinical signs / cold ears + systemic / in ….
The mark [31] stands for this setting: group: developmental, systemic / in life observation / body weight / fetal weight.
Setting [32] is: group: maternal, reproductive / reproductive performance / aborted / aborted + systemic / in life observation / body weight / body weight gain.
[33] abbreviates: group: developmental, developmental / developmental malformation / bone / ossification sites + developmental / developmental malformation / bone / supernumerary.
The mark [34] stands for this setting: group: systemic, systemic / in life observation / body weight / body weight + systemic / in life observation / body weight / body weight gain + systemic / in….

The structures appear in SMILES notation.

For `O=[N+]([O-])c1ccc(O)cc1` [4-Nitrophenol], in the data set with mouse [1], the LEL was determined as 400 mg/kg/day, the LOAEL is > 400 mg/kg/day, the NEL was < 400 mg/kg/day and the NOAEL was ≥ 400 mg/kg/day.
For `O=[As](O)(O)O` [Arsenic acid], the LOAEL in the data set with mouse [2] (group: offspring, systemic / in life observation / body weight / offspring (pup) weight) was 25 mg/kg/day; in the data set with mouse [2] (setting [18]), 5 mg/kg/day; in the data set with mouse [2] (setting [20]), 25 mg/kg/day; in the data set with mouse [3] (setting [21]), 64 mg/kg/day; in the data set on mouse [3] (setting [22]) it was 32 mg/kg/day. Moreover, the LEL in the data set with mouse [2] (setting [17]) worked out at 25 mg/kg/day; in the data set with mouse [2] (setting [18]), 5 mg/kg/day; in the data set on mouse [2] (setting [20]), 25 mg/kg/day; in the data set with mouse [3] (setting [21]), 64 mg/kg/day; with mouse [3] (setting [22]), 32 mg/kg/day. The NEL in the data set on mouse [2] (setting [17]) was 5 mg/kg/day; with mouse [2] (setting [18]) it was 1 mg/kg/day; with mouse [2] (setting [19]), 5 mg/kg/day; in the data set with mouse [3] (setting [21]), 32 mg/kg/day; with mouse [3] (setting [23]), 10 mg/kg/day. For the same compound, the NOAEL in the data set with mouse [2] (setting [17]) stood at 5 mg/kg/day; in the data set on mouse [2] (setting [18]) it was 1 mg/kg/day; in the data set on mouse [2] (setting [19]), 5 mg/kg/day; with mouse [3] (setting [21]) it was 32 mg/kg/day; in the data set with mouse [3] (setting [23]), 10 mg/kg/day.
In the case of `Nc1cnn(-c2ccccc2)c(=O)c1Cl` [Chloridazon], the LEL stood at 186 mg/kg/day in the data set on dog [4]; 60 mg/kg/day with rat [5] (systemic / in life observation / body weight / body weight + systemic / clinical chemistry / calcium / calcium); 133 mg/kg/day with dog [6]; 150 mg/kg/day in the data set with rat [7]; 146 mg/kg/day in the data set with mouse [8] (systemic / pathology microscopic / lung / adenoma). The LOAEL in the data set with dog [4] was 186 mg/kg/day; with rat [5] (systemic / in life observation / body weight / body weight) it was 60 mg/kg/day; in the data set on dog [6], 133 mg/kg/day; in the data set on rat [7], > 200 mg/kg/day; with mouse [8] (systemic / in life observation / body weight / body weight + systemic / in life observation / body weight / body weight gain), 762 mg/kg/day. In addition, the NEL in the data set on dog [4] is < 186 mg/kg/day; with rat [5] (setting [24]), 18 mg/kg/day; in the data set with dog [6] it was < 133 mg/kg/day; with rat [7], < 150 mg/kg/day; with mouse [8] (setting [25]), 28 mg/kg/day. For the same compound, the NOAEL in the data set on dog [4] was < 186 mg/kg/day; in the data set on rat [5] (setting [24]), 18 mg/kg/day; in the data set with dog [6] it was < 133 mg/kg/day; in the data set on rat [7] it was ≥ 200 mg/kg/day; in the data set with mouse [8] (setting [25]), 146 mg/kg/day.
Regarding `COc1nn(C(=O)[N-]S(=O)(=O)c2ccccc2OC(F)(F)F)c(=O)n1C.[Na+]` [Flucarbazone-sodium], the LEL with dog [9] was 183 mg/kg/day; with rat [10] (systemic / organ weight / spleen / absolute + systemic / organ weight / spleen / relative to body weight) it was 73.5 mg/kg/day; in the data set with rat [11] (setting [27]), 1060 mg/kg/day; in the data set with rat [11] (group: parental, systemic / pathology gross / intestine large / dilatation), 453 mg/kg/day; in the data set on mouse [12], 2070 mg/kg/day; in the data set with rabbit [13] (setting [28]) it was 500 mg/kg/day. In the data set with rabbit [13] (setting [30]), the LEL was found to be 300 mg/kg/day. Further, the LOAEL in the data set on dog [9] came out at 183 mg/kg/day; in the data set with rat [10] (systemic / organ weight / spleen / absolute + systemic / organ weight / spleen / relative to body weight + systemic / pathology microscopic…), 287 mg/kg/day; in the data set on rat [11] (setting [27]), 1060 mg/kg/day; in the data set with rat [11] (group: parental, systemic / organ weight / uterus / absolute), 991 mg/kg/day; in the data set with mouse [12], 2070 mg/kg/day; in the data set with rabbit [13] (setting [28]), 500 mg/kg/day. Moreover, the LOAEL in the data set on rabbit [13] (setting [30]) amounted to 300 mg/kg/day. The NEL in the data set on dog [9] was 35.9 mg/kg/day; in the data set on rat [10] (setting [26]), 17.6 mg/kg/day; in the data set with rat [11] (setting [27]) it was 346 mg/kg/day; with rat [11] (group: parental, systemic / pathology gross / intestine large / dilatation + systemic / in life observation / clinical signs / defecation + systemic / in …) it was 5.5 mg/kg/day; in the data set on mouse [12] it was 275 mg/kg/day; with rabbit [13] (setting [29]), 300 mg/kg/day. The NEL with rabbit [13] (setting [30]) stood at 100 mg/kg/day. Besides, the NOAEL in the data set with dog [9] was 35.9 mg/kg/day; in the data set on rat [10] (setting [26]) it was 73.5 mg/kg/day; in the data set with rat [11] (setting [27]), 346 mg/kg/day; in the data set with rat [11] (group: parental, systemic / organ weight / uterus / absolute + systemic / in life observation / body weight / body weight + systemic / in life observation / …), 340 mg/kg/day; in the data set on mouse [12] it was 275 mg/kg/day; in the data set on rabbit [13] (setting [29]) it was 300 mg/kg/day. Moreover, in the data set with rabbit [13] (setting [30]), the NOAEL was found to be 100 mg/kg/day.
On to `O=S(=O)(O)C(F)(F)C(F)(F)C(F)(F)C(F)(F)C(F)(F)C(F)(F)C(F)(F)C(F)(F)F` [PFOS], for which, in the data set on rabbit [14] (setting [31]), the LEL amounted to 3.75 mg/kg/day, the LOAEL is > 3.75 mg/kg/day, the NEL came out at 1 mg/kg/day and the NOAEL is ≥ 3.75 mg/kg/day. Further, in the data set on rabbit [14] (setting [32]), the LOAEL is > 2.5 mg/kg/day, the NEL turned out to be 0.1 mg/kg/day and the NOAEL is ≥ 2.5 mg/kg/day. In addition, the LEL in the data set with rabbit [14] (group: maternal, systemic / in life observation / body weight / body weight gain) was determined as 1 mg/kg/day.
With `O=C(Nc1ccc(F)cc1)c1cccc(Oc2cccc(C(F)(F)F)c2)n1` [Picolinafen], in the data set with rat [15] (group: offspring), the LEL was 21 mg/kg/day, the LOAEL was > 43 mg/kg/day, the NEL came to 4.3 mg/kg/day and the NOAEL is ≥ 43 mg/kg/day. In the data set on rat [15] (group: parental), the LEL turned out to be 19 mg/kg/day, the LOAEL was found to be 19 mg/kg/day, the NEL is 3.7 mg/kg/day and the NOAEL was 3.7 mg/kg/day.
As to `CC(=O)OC(C)(C)C` [tert-Butyl acetate], in the data set with rat [16] (setting [33]), the LEL is 800 mg/kg/day, the LOAEL was > 1600 mg/kg/day, the NEL came out at 400 mg/kg/day and the NOAEL was ≥ 1600 mg/kg/day. For the same compound, in the data set with rat [16] (setting [34]), the LEL was determined as 1600 mg/kg/day, the LOAEL is > 1600 mg/kg/day, the NEL is 800 mg/kg/day and the NOAEL was ≥ 1600 mg/kg/day.
